Assay results published in patent US10428082B2, “Triazole derivatives of melampomagnolide B and methods of use thereof” (BioVentures, LLC, priority 2016, dated 2019).

Assays:
M9 ENL1 cell line = assay: Anti-leukemic activity, Annexin V/7-AAD flow cytometry; format: cell-based; details: 24 h of drug exposure; read-out: M9ENL1 (EC50)
Procedure: The newly synthesized triazole derivatives of melampomagnolide B were screened for anti-leukemic activity against M9 ENL1 and primary AML cell lines; the latter were obtained with informed consent from human patients. Evaluations were performed after 24 h of drug exposure using flow cytometric analysis by labeling with Annexin V and 7-aminoactinomycin D (7-AAD) to delineate apoptotic cell populations. In all experiments PTL was included as a reference control.

786-0 = assay: NCI 60 growth inhibition; format: cell-based, human; details: 786-0, Renal Cancer, Table 3
Procedure: (§1) The above triazole derivatives of melampomagnolide B were evaluated for growth inhibitory properties against an NCI panel of 60 human cancer cell lines derived from nine human cancer cell types, grouped into disease sub-panels that represent leukemia, lung, colon, central nervous system (CNS), melanoma, renal, ovary, breast, and prostate cancer cells. Growth inhibitory (GI50) effects were measured as a function of the variation of optical density as a percentage of control.

A498 = assay: NCI 60 growth inhibition; format: cell-based, human; details: A498, Renal Cancer, Table 3
Procedure: as §1

A549/ATCC = assay: NCI 60 growth inhibition; format: cell-based, human; details: Non-Small Cell Lung Cancer, Table 3
Procedure: as §1

COLO 205 = assay: NCI 60 growth inhibition; format: cell-based, human; details: COLO 205, Colon Cancer, Table 3
Procedure: as §1

HCC-2998 = assay: NCI 60 growth inhibition; format: cell-based, human; details: HCC-2998, Colon Cancer, Table 3
Procedure: as §1

HCT-15 = assay: NCI 60 growth inhibition; format: cell-based, human; details: HCT-15, Colon Cancer, Table 3
Procedure: as §1

HOP-62 = assay: NCI 60 growth inhibition; format: cell-based, human; details: HOP-62, Non-Small Cell Lung Cancer, Table 3
Procedure: as §1

HOP-92 = assay: NCI 60 growth inhibition; format: cell-based, human; details: HOP-92, Non-Small Cell Lung Cancer, Table 3
Procedure: as §1

HS 578T = assay: NCI 60 growth inhibition; format: cell-based, human; details: Breast Cancer, Table 3
Procedure: as §1

IGROV1 = assay: NCI 60 growth inhibition; format: cell-based, human; details: IGROV1, Ovarian Cancer, Table 3
Procedure: as §1

LOX IMVI = assay: NCI 60 growth inhibition; format: cell-based, human; details: Melanoma, Table 3
Procedure: as §1

M14 = assay: NCI 60 growth inhibition; format: cell-based, human; details: M14, Melanoma, Table 3
Procedure: as §1

MALME-3M = assay: NCI 60 growth inhibition; format: cell-based, human; details: Melanoma, Table 3
Procedure: as §1

MDA-MB-231/ATCC = assay: NCI 60 growth inhibition; format: cell-based, human; details: Breast Cancer, Table 3
Procedure: as §1

MDA-MB-468 = assay: NCI 60 growth inhibition; format: cell-based, human; details: MDA-MB-468, Breast Cancer, Table 3
Procedure: as §1

MOLT-4 = assay: NCI 60 growth inhibition; format: cell-based, human; details: MOLT-4, Leukemia, Table 3
Procedure: as §1

NCI-H226 = assay: NCI 60 growth inhibition; format: cell-based, human; details: NCI-H226, Non-Small Cell Lung Cancer, Table 3
Procedure: as §1

NCI-H23 = assay: NCI 60 growth inhibition; format: cell-based, human; details: NCI-H23, Non-Small Cell Lung Cancer, Table 3
Procedure: as §1

NCI-H322M = assay: NCI 60 growth inhibition; format: cell-based, human; details: Non-Small Cell Lung Cancer, Table 3
Procedure: as §1

NCI-H460 = assay: NCI 60 growth inhibition; format: cell-based, human; details: NCI-H460, Non-Small Cell Lung Cancer, Table 3
Procedure: as §1

NCI-H522 = assay: NCI 60 growth inhibition; format: cell-based, human; details: NCI-H522, Non-Small Cell Lung Cancer, Table 3
Procedure: as §1

NCI/ADR-RES = assay: NCI 60 growth inhibition; format: cell-based, human; details: Ovarian Cancer, Table 3
Procedure: as §1

OVCAR-3 = assay: NCI 60 growth inhibition; format: cell-based, human; details: OVCAR-3, Ovarian Cancer, Table 3
Procedure: as §1

RXF 393 = assay: NCI 60 growth inhibition; format: cell-based, human; details: RXF 393, Renal Cancer, Table 3
Procedure: as §1

SF-295 = assay: NCI 60 growth inhibition; format: cell-based, human; details: SF-295, CNS Cancer, Table 3
Procedure: as §1

SF-539 = assay: NCI 60 growth inhibition; format: cell-based, human; details: SF-539, CNS Cancer, Table 3
Procedure: as §1

SK-MEL-2 = assay: NCI 60 growth inhibition; format: cell-based, human; details: SK-MEL-2, Melanoma, Table 3
Procedure: as §1

SK-MEL-5 = assay: NCI 60 growth inhibition; format: cell-based, human; details: SK-MEL-5, Melanoma, Table 3
Procedure: as §1

SK-OV-3 = assay: NCI 60 growth inhibition; format: cell-based, human; details: SK-OV-3, Ovarian Cancer, Table 3
Procedure: as §1

SNB-75 = assay: NCI 60 growth inhibition; format: cell-based, human; details: SNB-75, CNS Cancer, Table 3
Procedure: as §1

SR = assay: NCI 60 growth inhibition; format: cell-based, human; details: Leukemia, Table 3
Procedure: as §1

T-47D = assay: NCI 60 growth inhibition; format: cell-based, human; details: Breast Cancer, Table 3
Procedure: as §1

TK-10 = assay: NCI 60 growth inhibition; format: cell-based, human; details: TK-10, Renal Cancer, Table 3
Procedure: as §1

UO-31 = assay: NCI 60 growth inhibition; format: cell-based, human; details: UO-31, Renal Cancer, Table 3
Procedure: as §1

| SMILES | EC50 (M9 ENL1 cell line) [nM] | GI50 (786-0) [nM] | GI50 (A498) [nM] | GI50 (A549/ATCC) [nM] | GI50 (COLO 205) [nM] | GI50 (HCC-2998) [nM] | GI50 (HCT-15) [nM] | GI50 (HOP-62) [nM] | GI50 (HOP-92) [nM] | GI50 (HS 578T) [nM] | GI50 (IGROV1) [nM] | GI50 (LOX IMVI) [nM] | GI50 (M14) [nM] | GI50 (MALME-3M) [nM] | GI50 (MDA-MB-231/ATCC) [nM] | GI50 (MDA-MB-468) [nM] | GI50 (MOLT-4) [nM] | GI50 (NCI-H226) [nM] | GI50 (NCI-H23) [nM] | GI50 (NCI-H322M) [nM] | further results |
| --- | --- | --- | --- | --- | --- | --- | --- | --- | --- | --- | --- | --- | --- | --- | --- | --- | --- | --- | --- | --- | --- |
| C=C1C(=O)O[C@H]2[C@H]1CC/C(Cn1cc(-c3ccc(N)cc3)nn1)=C\CC[C@@]1(C)O[C@@H]21 [JVM 4-58] | 2000 | 1980 | 10400 | 11900 | 1790 | 3490 | 1420 | 10200 | 2130 | 4460 | 2960 | 1510 | 2970 | 2180 | 3450 | 1770 | 2870 | 3340 | 2490 | 12600 | GI50 (NCI-H460): 10400 nM; GI50 (NCI-H522): 1370 nM; GI50 (NCI/ADR-RES): 14500 nM; GI50 (OVCAR-3): 1620 nM; GI50 (RXF 393): 1410 nM; GI50 (SF-295): 12100 nM; GI50 (SF-539): 2770 nM; GI50 (SK-MEL-2): 10600 nM; GI50 (SK-MEL-5): 3470 nM; GI50 (SK-OV-3): 18300 nM; GI50 (SNB-75): 4980 nM; GI50 (SR): 700 nM; GI50 (T-47D): 2230 nM; GI50 (TK-10): 2250 nM; GI50 (UO-31): 1870 nM |
| C=C1C(=O)O[C@H]2[C@H]1CC/C(Cn1cc(-c3ccsc3)nn1)=C\CC[C@@]1(C)O[C@@H]21 [JVM 4-53] | 2700 | 1760 | 2650 | 8610 | 1450 | 1840 | 1110 | 4900 | 1660 | 2820 | 1920 | 1280 | 1930 | 1610 | 1750 | 1280 | 2590 | 2090 | 1820 | 10500 | GI50 (NCI-H460): 4710 nM; GI50 (NCI-H522): 1390 nM; GI50 (NCI/ADR-RES): 3790 nM; GI50 (OVCAR-3): 1060 nM; GI50 (RXF 393): 1070 nM; GI50 (SF-295): 9610 nM; GI50 (SF-539): 1800 nM; GI50 (SK-MEL-2): 2270 nM; GI50 (SK-MEL-5): 1830 nM; GI50 (SK-OV-3): 17400 nM; GI50 (SNB-75): 3230 nM; GI50 (SR): 560 nM; GI50 (T-47D): 2030 nM; GI50 (TK-10): 1520 nM; GI50 (UO-31): 1350 nM |
